What was measured:
Type in all cases: cell-based, human
Snail [1] = test: Western blot of Snail protein
Method: (§1) Cells were harvested, washed with PBS, and lysed on ice with RIPA buffer containing protease and phophatase inhibitor cocktail (GenDEPOT). After 15 minutes of incubation, the cell lysates were centrifuged at 15,000 rpm at 4° C. for 10 minutes. Protein concentration was measured by Bradford assay (Bio-rad, 500-0006). Equal amounts of total protein were placed on an SDS gel electrophoresis and transferred to a PVDF membrane (Bio-rad). The membrane was blocked with 5% skim milk for 1 hour at room temperature and incubated overnight at 4° C. with primary antibody in a buffer containing 0.1% Tween-20. Subsequently, the membrane was washed three times with Tween-PBS buffer and incubated for 1 hour at room temperature using a secondary antibody diluted in blocking buffer containing 0.1% Tween-20. Subsequently, the membrane was washed three times for 10 minutes each using Tween-TBS. Densitometry of Western blots was measured using ImageJ software.
[…] For autophagy activation, cells were'treated with 2 μM rapamycin (Selleckchem, S1039) for 5 hours. Modulation of intracellular ROS was performed with N-acetyl-cysteine (10 mM) (Sigma, A7250), hydrogen peroxide solution (100 μM to 200 μM) (Sigma, 216763), or CDDO-ME NRF2 activator (50 nM, 100 nM) (Sellckchem, S8078) for 4 to 24 hours. Intercellular calcium signal control was performed for 1 hour using BAPTA-AM (20 μM) (Sigma, A1076) or Calmidazolium Chloride (2.5 μM) (Sigma, C3930). […] For TFEB protein phosphorylation, tacrolimus (1 μM) (Selleckchem, S5003) was treated for 1 hour. […] During siRNA treatment, each siRNA was treated to a concentration of 40 to 50 nM and treated together with Lipofectamine RNAiMax (Thermo Fisher Scientific, 13778150) for transformation, and were used for experiments 48 to 72 hours later. For cDNA treatment, each cDNA was treated to a concentration of 1 to 2 μg in a 6-well plate and treated with Lipofectamine 2000 (Thermo Fisher Scientific, 11668019) for transformation, and were used for experiments 24 hours later.

KL cell lines = test: Matrigel invasion assay, KL cell lines; conditions: in two of the three KL cell lines; AMG-510 1 uM
Method: (§2) For the 2D invasion assay, the inserts were pre-coated with 300 μg/ml Matrigel (Coming, 354234). After staining with […] dye (Bio-Rad, 1450013), 1×10^5 live cells per 8-um-pore cell-culture insert (Costar. 3422) were seeded in 0.5% ACL medium. 10% ACL medium was added to the outside of the insert. In the case of lung cancer and pancreatic cancer cell lines, after inoculation in 1% RPMI medium, 20% RPMI medium was added to the outside of the insert. Plates were incubated for 24 hours at 37° C. After incubation, the insert was fixed with 3.7% PFA, washed, stained with 0.4% crystal violet, and the upper membrane was washed and dried.

TFEB [2] = test: Western blot / immunoprecipitation-immunoblot of TFEB (acetylated, phosphorylated, total); conditions: HBEC-KL; for reduced TFEB protein level in the chloroquine (CQ) treatment condition: 50 uM CQ 24 hours with 10 mM acetate 24 hours or 3 uM SAHA 15 hours; for acetylated TFEB level / phosphorylated TFEB level / total TFEB protein level: 10 mM acetate 24 hours or 3 μM SAHA
Method: FIG. 11J illustrates a diagram of immunoblot results of the […] a control (left), and the immunoprecipitation-immunoblot result of TFEB acetylated HBEC-KL cells under the same conditions (right) is also shown,
as §1
(§3) For immunoprecipitation, equal amounts of lysate and Co-IP buffer (40 mM HEPES, pH 7.4, 120 mM NaCl, 2 mM EDTA, 0.3% CHAPS (Sigma, 10810118001), 10 mM pyrophosphate (Sigma, 221368), 10 mM glycerophosphate (Sigma, G9422), 50 mM NaF, phosphatase and protease inhibitor mixture) were mixed. Cell lysates (1 μg protein) were incubated overnight at 4° C. on anti-FLAG® M2 Affinity Gel (Sigma, A2220) or anti-acetyl-lysine antibody coated agarose (ImmuneChem Pharmaceuticals, ICP0388). The immunoprecipitate was then washed three times in IP buffer, and the immunoprecipitated complex was dissolved and separated by boiling in IP buffer for 5 minutes.

Snail [3] = test: Western blot of Snail protein; conditions: HBEC-KL
LC3 = test: Autophagic flux (LC3 Western blot, mRFP-GFP-LC3 lysosomal delivery assay); conditions: HBEC-KL; 10 mM acetate 24 hours or 3 uM SAHA
Method: as §1, with “Representative GFP-LC3, RFP-LC3 and overlapping images are shown. In addition, red puncta (mRFP+/GFP−) and yellow puncta (mRFP+/GFP+) per cell were quantified and graphed (n=15 cells/treatment). Cells” for “Cells”

acetylated Snail = test: Immunoprecipitation-immunoblot of acetylated Snail; conditions: HBEC-KL
Method: Cell lysates (1 μg protein) were incubated overnight at 4° C. on anti-FLAG® M2 Affinity Gel (Sigma, A2220) or anti-acetyl-lysine antibody coated agarose (ImmuneChem Pharmaceuticals, ICP0388). The immunoprecipitate was then washed three times in IP buffer, and the immunoprecipitated complex was dissolved and separated by boiling in IP buffer for 5 minutes.
For SDS-PAGE electrophoresis, the immunoprecipitated complex was transferred to a nitrocellulose membrane and the membrane was blocked and then incubated for 1 hour at room temperature with Primary antibody and secondary antibody (VeriBlot for IP Detection Reagent (HRP) (Abcam, #ab131366), and anti-mouse IgG tor IP (HRP) (Abeam, #ab131368)).
After washing 3 times, the membrane was incubated with the secondary antibody.

HBEC-KL cell line = test: Matrigel invasion assay, HBEC-KL cell line
Method: as §2

TFEB [4] = test: Immunofluorescence of TFEB localization; conditions: HBEC-KL; 10 mM acetate 24 hours or 3 uM SAHA 5 hours
Method: Cells were seeded onto coated glass coverslips and maintained in ACL medium for 48 hours. After washing the cells three times with PBS. they were incubated in 3.7% paraformaldehyde for 10 minutes and fixed. Thereafter, the cells were washed three times with PBS and subjected to cell permeabilizaton in PBS containing 0.1% Triton X-100 for 10 minutes. After washing with PBS three times, the sample was blocked for 30 minutes at room temperature with PBS containing 0.1% Triton X-100 and 5% goat serum. Samples were incubated with primary antibody (1:150). followed by incubation with anti-rabbit/mouse Alexa Fluor 488/568 secondary antibody (Thermo Fisher Scientific, A-11001, 11004, 11008. 11011) and ProLong Gold Antifade Mountant with DAPI (Thermo Fisher Scientific, P36931), Images were taken with an Axio imager M2 microscope (Carl Zeiss, […]) equipped with a 63× oil objective and analyzed with ZEN version 3.0 software.

TFEB (CLEAR network) = test: CLEAR motif-driven luciferase reporter assay; conditions: HBEC-KL
Method: To compare the TFEB reporter activity with other cell lines (HBEC30KT, HBEC-K, and HBEC-KL), the pGL4.70 5× CLEAR Rluc and pSt4.14 Fluc vectors were transiently co-transfected and normalized luciferase activity was measured in Dual-Measured by Luciferase® Reporter Assay System (Promega, E1910),

phospho-RPS6 (p-S6) = test: Western blot of phospho-RPS6 (p-S6); conditions: HBEC-KL; acetate or SAHA treatment
Method: as §1

TFEB gene = test: Real-time PCR of TFEB gene; conditions: HBEC-KL; 10 mM acetate 24 hours or 3 uM SAHA 15 hours
Method: At 72 hours after siRNA transfection (post-transfection) and 12 to 24 hours after chemical treatment, total RNA was isolated with the RNeasy miniprep kit (QIAGEN, 74134). After synthesizing complementary DNA (cDNA) using the TOPscript·8 cDNA synthesis kit (Enzynomics, EZ0054), gRT-PCR was performed with TCPreal™ gRCR 2× PreMIX (SYBR Green with low ROX) (Enzynomics, RT501M). GAPDH and beta-actin were used for RNA normalization. qRT-PCR was performed with a StepOne Plus (Applied Biosystems) instrument.

Snail [5] = test: Immunoprecipitation-immunoblot of phosphorylated/acetylated or K48 polyubiquitinated Snail in A549 cells; conditions: 25 uM C646 or 3 uM SAHA
Method: FIG. 9K illustrates the immunoprecipitation-immunoblot result of phosphorylated/acetylated or K48 polyubiquitinated Snail assay after transfection of wild-type Snail (pFLAG-Snail WT) or acetylation-defective Snail mutant (pFLAG-SnailK146R) into A549 cells and/or treatment with 25 uM C646.
FIG. 9L illustrates the immunoprecipitation-immunoblot results of the polyubiquitinated Snail assay after transfection of HA-ubiquitin and wild-type Snail (pFLAG-Snail WT) or acetylation-defective Snail mutant (pFLAG-SnailK146R) into A549 cells and/or treatment with 25 uM C646 for 2 hours (left) and/or treatment of 3 uM SAHA for 5 hours (right).
as §3

β-catenin = test: Western blot of β-catenin; conditions: HBEC-KL; CHIR99021 3 uM, 5 hours, in the presence of 50 uM CQ
Method: as §1, with “FIG. 5K illustrates the expression level of Snail protein after treatment with the GSK3β inhibitor CHIR99021 (3 uM, treatment for 5 hours) in the presence of 50 uM chloroquine (CQ) in the HBEC-KL cell line. Cells” for “Cells”

SNAI1 gene = test: Real-time PCR of SNAI1 gene; conditions: HBEC-KL; 10 mM acetate, 24 hours
Method: After synthesizing complementary DNA (cDNA) using the TOPscript·8 cDNA synthesis kit (Enzynomics, EZ0054), gRT-PCR was performed with TCPreal™ gRCR 2× PreMIX (SYBR Green with low ROX) (Enzynomics, RT501M). GAPDH and beta-actin were used for RNA normalization. qRT-PCR was performed with a StepOne Plus (Applied Biosystems) instrument.

Structure (SMILES) | reduced TFEB protein level in the chloroquine (CQ) treatment condition (TFEB [2]) | acetylated TFEB level (TFEB [2]) | phosphorylated TFEB level (TFEB [2]) | total TFEB protein level (TFEB [2]) | autophagy flux (LC3) | level of nuclear-localized TFEB (TFEB [4]) | level of phospho-RPS6 (p-S6) (phospho-RPS6 (p-S6)) | TFEB mRNA level (TFEB gene) | also measured
C=CC(=O)N1CCN(c2nc(=O)n(-c3c(C)ccnc3C(C)C)c3nc(-c4c(O)cccc4F)c(F)cc23)[C@@H](C)C1 [AMG-510] |  |  |  |  |  |  |  |  | Snail expression level (Snail [1]; in two of the three KL cell lines, AMG-510 1 uM, 48 hours): increased; cell invasiveness (KL cell lines): increased
O=C(CCCCCCC(=O)Nc1ccccc1)NO [SAHA, vorinostat] | partially restored | increased | increased | increased | increased | increased | kept constant | no significant change | Snail reduction by chloroquine (CQ), upon SAHA treatment (Snail [3]; 3 uM SAHA and 50 uM CQ, 24 hours): restored; level of acetylated Snail (acetylated Snail; 3 uM SAHA, 15 hours): increased; degree of matrigel-infiltration (HBEC-KL cell line; HBEC-KL, SAHA): increased; CLEAR activity under FK506 treatment (TFEB (CLEAR network); 1 uM FK506 with 10 mM acetate 24 hours or 3 uM SAHA 15 hours): increased; CLEAR activity (TFEB (CLEAR network); 10 mM acetate 24 hours or 3 uM SAHA 5 hours): increased; K48 polyubiquitination of wild-type Snail (Snail [5]; pFLAG-Snail WT): reduced; phosphorylation of wild-type Snail (Snail [5]; pFLAG-Snail WT): reduce; phosphorylation and acetylation of K146R Snail (Snail [5]; pFLAG-SnailK146R): did not affect
Cc1c[nH]c(-c2cnc(NCCNc3ccc(C#N)cn3)nc2-c2ccc(Cl)cc2Cl)n1 [CHIR99021] |  |  |  |  |  |  |  |  | expression levels of β-catenin under autophagy inhibition (β-catenin): restored; levels of Snail protein under autophagy inhibition (Snail [3]; CHIR99021 3 uM, 5 hours, in the presence of 50 uM CQ): did not restore
CC(=O)[O-].[Na+] [acetate, sodium acetate] | partially restored | increased | increased | increased | increased | increased | kept constant | no significant change | Snail protein expression levels (Snail [1]; HBEC-KL, acetate, 24 hours): increased; level of acetylated Snail (acetylated Snail; 10 mM acetate, 24 hours): increased; invasiveness (HBEC-KL cell line; KL cells (HBEC-KL), 10 mM acetate, 24 hours): increased; Snail mRNA expression levels (SNAI1 gene): no effect

Reference: US20240041842A1, “PHARMACEUTICAL COMPOSITION FOR INHIBITING CANCER METASTASIS” (INDUSTRY-ACADEMIC COOPERATION FOUNDATION, YONSEI UNIVERSITY, priority 2021, published 2024)
